Measurements as given in patent US4273771A, “Novel Δ^4,9 -gonadiene-21-ol-3,20-diones” (Roussel Uclaf, priority 1978, dated 1981).

Columns and labels:
[1] = test system: immature rabbits sensitized with estradiol; experiment: Clauberg test: proliferation of endometric lace; type: in vivo, rabbit; conditions: for MacPhail units: subcutaneous, 5 days
Experimental: The progestomimetic activity was also determined by the Clauberg test in which groups of 3 immature rabbits were previously sensitized by subcutaneous administration of estradiol for 5 days at a daily dose of 5 μg. Two days after the last treatment, the compound A of Example 1 in solution in sesame oil containing 5% of benzyl alcohol was subcutaneously administered daily for 5 days and the rabbits were killed on the 6th day. The uterus was removed and the proliferation of endometric lace which is characteristic of progestomimetic activity was determined in MacPhail units.

[2] = molecular target: T1, specific progesterone receptors (uterine cytosol) (Oryctolagus cuniculus, UniProt P06186); experiment: hormonal receptor method: displacement of tritiated Product R in rabbit uterine cytosol; type: binding; conditions: for ARL (relative affinity of the test product): progesterone = 100
T1 construct: the uterus was removed and homogenized in a buffered solution; from tissue; host or cells: uterus cytosol (105,000 g supernatant) of immature estradiol-treated rabbits
T1 sequence (P06186 1-930): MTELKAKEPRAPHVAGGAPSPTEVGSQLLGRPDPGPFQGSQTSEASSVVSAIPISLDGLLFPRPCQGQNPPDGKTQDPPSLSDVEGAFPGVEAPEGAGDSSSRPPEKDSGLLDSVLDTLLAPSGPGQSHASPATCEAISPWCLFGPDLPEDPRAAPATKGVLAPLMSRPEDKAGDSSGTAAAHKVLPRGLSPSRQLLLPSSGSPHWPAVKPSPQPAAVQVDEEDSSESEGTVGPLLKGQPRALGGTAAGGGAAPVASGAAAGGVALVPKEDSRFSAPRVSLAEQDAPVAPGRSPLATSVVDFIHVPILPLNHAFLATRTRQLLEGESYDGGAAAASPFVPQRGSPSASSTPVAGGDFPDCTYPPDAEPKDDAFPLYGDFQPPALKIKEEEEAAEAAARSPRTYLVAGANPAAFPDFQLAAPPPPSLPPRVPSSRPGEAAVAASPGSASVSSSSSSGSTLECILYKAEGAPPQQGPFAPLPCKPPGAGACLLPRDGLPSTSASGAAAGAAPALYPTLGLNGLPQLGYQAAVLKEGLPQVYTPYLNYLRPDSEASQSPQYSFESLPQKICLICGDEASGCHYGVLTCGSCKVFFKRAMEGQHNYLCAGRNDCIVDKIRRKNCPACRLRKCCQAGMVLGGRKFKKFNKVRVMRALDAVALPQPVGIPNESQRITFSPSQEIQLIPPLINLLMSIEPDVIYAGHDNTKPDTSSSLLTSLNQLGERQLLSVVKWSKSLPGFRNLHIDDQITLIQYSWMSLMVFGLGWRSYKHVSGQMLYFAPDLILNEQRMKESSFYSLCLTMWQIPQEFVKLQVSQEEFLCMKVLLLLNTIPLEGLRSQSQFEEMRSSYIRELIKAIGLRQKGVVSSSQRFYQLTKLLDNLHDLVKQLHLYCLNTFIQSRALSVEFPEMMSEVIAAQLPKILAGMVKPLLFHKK
Experimental: The progestomimetic activity was determined for the product A of Example 1 by the hormonal receptor method of Raynaud et al [J. Ster. Biochem., Vol. 6 (1975), p. 615-622 and Physiology and Genetics of Reproduction, 1975, Part A, p. 143-160]. Immature rabbits received 25 μg of estradiol percutaneously and were sacrificed after 5 days and the uterus was removed and homogenized in a buffered solution of 10 mM of tromethamine, 0.25 M of saccharose and a pH of 7.4 was kept with hydrochloric acid. The homogenate was centrifuged at 105,000 g per hour and the surnageant or cytosol was adjusted to a solution of 1/50 (weight/volume). […] The radioactivity of the tritiated product R was determined after 2 hours and after 24 hours by the technique of adsorption on carbondextran (1.25%-0.625%). The plots were the curves of the right parallel of the axis of abscisses of ordinate [formula] wherein Bo is the maximum amount of tied tritiated product R measured in the incubation containing only tritiated product R and Bmin is the minimum amount of tied tritiated product R (non-specific) measured in the incubation containing tritiated product R and a large excess of cold product R (2500×10^-9 M) and the curves representing the percentages of tied tritiated product R B/Bo as a logarithmatic function of the concentrations of added cold product R.
The intersections of these I50 straight lines and the curves permit the determination of the values: CP--concentration of cold progesterone which inhibits by 50% the fixation of the tritiated product R and CX--concentration of test product which inhibits by 50% the fixation of tritiated product R. The relative affinity of the test product (ARL) was determined by the formula [formula] and the results are reported in Table I

immature female mice = experiment: antiestrogenic activity, uterus weight (method of Rubin and Dorfman et al); type: in vivo
Experimental: The estrogenic activity of the product A of Example 1 was also determined by the method of Rubin [Endocrinology, Vol. 49 (1951), p. 429] and Dorfman et al [Methods in Hormone Research, Vol. II (1962), p. 118] in which groups of 4 immature female mice 18 days old received once a day for 3 days a subcutaneous injection of estradiol only, only the test product or estradiol and the test product. In the last case, separate injections were used. The animals were killed on the 4th day and the uterus was removed, dissected and weighed. The test product was administered in a volume of 0.1 ml of sesame oil solution containing 5% of benzyl alcohol at a total dose of 0.27 μg of estradiol and the test compound was used at total doses of 0.3, 1.0, 3 and 10 μg.

[3] = total dose 0.3 μg + estradiol 0.27 μg
[4] = total dose 1 μg + estradiol 0.27 μg
[5] = total dose 3 μg + estradiol 0.27 μg
[6] = total dose 10 μg + estradiol 0.27 μg

CC(O)C(=O)C1(C)CCC2C3CCC4=CC(=O)CCC4=C3CCC21C (single isomer, unassigned) [Product A of Example 1, 17α-methyl-17β-(2-hydroxy-1-oxopropyl)-Δ^4,9-estradiene-3-one]
MacPhail units ([1]; 1 μg daily): 2.2 MacPhail units
MacPhail units ([1]; 3 μg daily): 3.4 MacPhail units
MacPhail units ([1]; 10 μg daily): 3.4 MacPhail units
progestomimetic activity ([1]; result in words): very strong progestomimetic activity
ARL (relative affinity of the test product) ([2]; 2 h incubation at 0° C.): 204
ARL (relative affinity of the test product) ([2]; 24 h incubation at 0° C.): 688
affinity for specific uterine reception of progesterone compared with progesterone ([2]; result in words): much greater affinity
antiestrogenic activity against estradiol (immature female mice; dose of 1 μg, result in words): clear antiestrogenic activity
Average Weight of uterus (immature female mice; test product only, total dose 0.3 μg): 14.6 mg
Average Weight of uterus (immature female mice; test product only, total dose 1 μg): 13.0 mg
Average Weight of uterus (immature female mice; test product only, total dose 3 μg): 17.1 mg
Average Weight of uterus (immature female mice; test product only, total dose 10 μg): 15.8 mg
Average Weight of uterus (immature female mice; [3]): 80.5 mg
change of average uterus weight versus estradiol only (immature female mice; [3]): -19%
Average Weight of uterus (immature female mice; [4]): 59.6 mg
change of average uterus weight versus estradiol only (immature female mice; [4]): -39%
Average Weight of uterus (immature female mice; [5]): 38.5 mg
change of average uterus weight versus estradiol only (immature female mice; [5]): -61%
Average Weight of uterus (immature female mice; [6]): 39.6 mg
change of average uterus weight versus estradiol only (immature female mice; [6]): -60%

C[C@]12CC[C@@H]3c4ccc(O)cc4CC[C@H]3[C@@H]1CC[C@@H]2O [Estradiol, reference compound]
Average Weight of uterus (immature female mice; estradiol only, total dose 0.27 μg, subcutaneous, 3 days): 99.3 mg
